In ChEMBL document CHEMBL3885861, “Open TG-GATES”:

Species: Rattus norvegicus
Assay: Open TG-GATES - Regimen: Single
Assay type: toxicity, organism-based, Sprague-Dawley
Set-up: regimen Single, gender Male, age 6 weeks
Conditions: in vivo, iv, route intravenous injection; for K / LDH / Na / PL / RALB / TBIL / TC / TG / TP / gamma-GTP / A/G / ALP / ALT / AST / BUN / CRE / Ca / Cl / DBIL / GLC / IP: tissue Plasma; for APTT / Bas / Eos / Fbg / Hb / Ht / Lym / MCH / MCHC / MCV / Mono / Neu / PT / Plat / RBC / Ret / WBC: tissue Blood; for KIDNEY_L / KIDNEY_R / KIDNEY_TOTAL: tissue Kidney; for LIVER: tissue Liver
[1] = 3 mg/kg, 3 h, dose level Middle
[2] = 3 mg/kg, 6 h, dose level Middle
[3] = 3 mg/kg, 9 h, dose level Middle
[4] = 3 mg/kg, 24 h, dose level Middle

C[C@@H]1C[C@@H]([C@H](O)CC2CC(=O)NC(=O)C2)C(=O)[C@@H](C)C1 [CYCLOHEXIMIDE]
K (1 mg/kg, 24 h, dose level Low): 4.4 meq/L
LDH (1 mg/kg, 24 h, dose level Low): 149.2 IU/L
Na (1 mg/kg, 24 h, dose level Low): 139.8 meq/L
PL (1 mg/kg, 24 h, dose level Low): 110.4 mg/dL
RALB (1 mg/kg, 24 h, dose level Low): 2.6 g/dL
TBIL (1 mg/kg, 24 h, dose level Low): 0.028 mg/dL
TC (1 mg/kg, 24 h, dose level Low): 51.4 mg/dL
TG (1 mg/kg, 24 h, dose level Low): 169.6 mg/dL
TP (1 mg/kg, 24 h, dose level Low): 4.6 g/dL
gamma-GTP (1 mg/kg, 24 h, dose level Low): 1.6 IU/L
TERMINAL_BW [1]: 221.6 g
APTT [1]: 22.4 s
Bas [1]: 0%
Eos [1]: 0.6%
Fbg [1]: 296.6 mg/dL
Hb [1]: 13.7 g/dL
Ht [1]: 41.1%
Lym [1]: 73.2%
MCH [1]: 21.6 pg
MCHC [1]: 33.4%
MCV [1]: 64.6 fL
Mono [1]: 0.8%
Neu [1]: 24.8%
PT [1]: 17.4 s
Plat [1]: 132.2 x10_4/uL
RBC [1]: 636.8 x10_4/ul
Ret [1]: 9.2%
WBC [1]: 217.3 x10_2/uL
KIDNEY_L [1]: 1 g
KIDNEY_R [1]: 1 g
KIDNEY_TOTAL [1]: 2 g
LIVER [1]: 9.6 g
A/G [1]: 1.3
ALP [1]: 1376.2 IU/L
ALT [1]: 58 IU/L
AST [1]: 140.8 IU/L
BUN [1]: 32.6 mg/dL
CRE [1]: 0.1 mg/dL
Ca [1]: 9.8 mg/dL
Cl [1]: 109.4 meq/L
DBIL [1]: 0.004 mg/dL
GLC [1]: 170.4 mg/dL
IP [1]: 9.8 mg/dL
K [1]: 4.7 meq/L
LDH [1]: 364.6 IU/L
Na [1]: 142.2 meq/L
PL [1]: 80 mg/dL
RALB [1]: 2.8 g/dL
TBIL [1]: 0.018 mg/dL
TC [1]: 59.4 mg/dL
TG [1]: 52.4 mg/dL
TP [1]: 5.1 g/dL
gamma-GTP [1]: 2 IU/L
TERMINAL_BW [2]: 221.4 g
APTT [2]: 25.3 s
Bas [2]: 0%
Eos [2]: 0.4%
Fbg [2]: 276 mg/dL
Hb [2]: 14.1 g/dL
Ht [2]: 42.1%
Lym [2]: 60.4%
MCH [2]: 21.2 pg
MCHC [2]: 33.6%
MCV [2]: 63.1 fL
Mono [2]: 1%
Neu [2]: 38%
PT [2]: 21.1 s
Plat [2]: 123.7 x10_4/uL
RBC [2]: 668 x10_4/ul
Ret [2]: 8.3%
WBC [2]: 191.1 x10_2/uL
KIDNEY_L [2]: 1 g
KIDNEY_R [2]: 1 g
KIDNEY_TOTAL [2]: 2 g
LIVER [2]: 8.6 g
A/G [2]: 1.4
ALP [2]: 1008.6 IU/L
ALT [2]: 63 IU/L
AST [2]: 134.2 IU/L
BUN [2]: 29.2 mg/dL
CRE [2]: 0.1 mg/dL
Ca [2]: 7.2 mg/dL
Cl [2]: 104.2 meq/L
DBIL [2]: 0.006 mg/dL
GLC [2]: 139.6 mg/dL
IP [2]: 11.6 mg/dL
K [2]: 4.2 meq/L
LDH [2]: 232.2 IU/L
Na [2]: 138.2 meq/L
PL [2]: 62.8 mg/dL
RALB [2]: 2.8 g/dL
TBIL [2]: 0.014 mg/dL
TC [2]: 39.6 mg/dL
TG [2]: 66.4 mg/dL
TP [2]: 4.9 g/dL
gamma-GTP [2]: 1.8 IU/L
TERMINAL_BW [3]: 215.9 g
APTT [3]: 27.9 s
Bas [3]: 0%
Eos [3]: 0.6%
Fbg [3]: 255.2 mg/dL
Hb [3]: 13.6 g/dL
Ht [3]: 41%
Lym [3]: 56.4%
MCH [3]: 21.1 pg
MCHC [3]: 33.1%
MCV [3]: 63.7 fL
Mono [3]: 1.2%
Neu [3]: 41.8%
PT [3]: 22.1 s
Plat [3]: 117.3 x10_4/uL
RBC [3]: 643 x10_4/ul
Ret [3]: 7.8%
WBC [3]: 199.4 x10_2/uL
KIDNEY_L [3]: 1 g
KIDNEY_R [3]: 1 g
KIDNEY_TOTAL [3]: 1.9 g
LIVER [3]: 8.6 g
A/G [3]: 1.5
ALP [3]: 1011.2 IU/L
ALT [3]: 51.4 IU/L
AST [3]: 111 IU/L
BUN [3]: 20.8 mg/dL
CRE [3]: 0.1 mg/dL
Ca [3]: 8 mg/dL
Cl [3]: 105.6 meq/L
DBIL [3]: 0.012 mg/dL
GLC [3]: 151.6 mg/dL
IP [3]: 8.9 mg/dL
K [3]: 3.8 meq/L
LDH [3]: 189.4 IU/L
Na [3]: 139.4 meq/L
PL [3]: 75.8 mg/dL
RALB [3]: 2.8 g/dL
TBIL [3]: 0.012 mg/dL
TC [3]: 47.2 mg/dL
TG [3]: 70.2 mg/dL
TP [3]: 4.9 g/dL
gamma-GTP [3]: 1 IU/L
TERMINAL_BW [4]: 220.9 g
APTT [4]: 30.4 s
Bas [4]: 0%
Eos [4]: 0%
Fbg [4]: 293.6 mg/dL
Hb [4]: 13.2 g/dL
Ht [4]: 39.9%
Lym [4]: 66.4%
MCH [4]: 20.3 pg
MCHC [4]: 33%
MCV [4]: 61.6 fL
Mono [4]: 1.4%
Neu [4]: 30.8%
PT [4]: 18.9 s
Plat [4]: 112.9 x10_4/uL
RBC [4]: 647.6 x10_4/ul
Ret [4]: 5.3%
WBC [4]: 276.2 x10_2/uL
KIDNEY_L [4]: 1 g
KIDNEY_R [4]: 1 g
KIDNEY_TOTAL [4]: 2 g
LIVER [4]: 9.6 g
A/G [4]: 1.3
ALP [4]: 739.4 IU/L
ALT [4]: 25.2 IU/L
AST [4]: 65.8 IU/L
BUN [4]: 11 mg/dL
CRE [4]: 0.2 mg/dL
